# According to US11510913B1, “Modulating expression level of a gene encoding an apurinic/apyrimidinic endodeoxyribonuclease protein by treating a human subject with a nitroxide” (priority 2021, dated 2022):
# Key:
# APEX1 [1] = assay: Treating human subjects with Tempol, serum level of APEX1 following treatment; type: in vivo; details: 2000 mg per day for 180 days
# Procedure: (§1) A 70-kilogram human subject over the age of 65 is identified as having, or known to have, or suspected of having an increased expression level of APEX1. The human subject is administered a dose of 2000 mg of Tempol (or another nitroxide antioxidant) per day for 180 days. This may be administered in a single dose, or may be administered as a number of smaller doses over a 24-hour period: for example, four 500-mg doses at […]. Following treatment, the serum level of APEX1, is decreased.
# as §1, with “subject” for “subject over the age of 65”
# as §1, with “65 and having a cardiovascular disease” for “65”, “for an increased expression level of APEX1. Or a 70-kilogram human subject over the age of 65 is” for “as having, or”, “have a cardiovascular disease and/or” for “have, or suspected of having an”
# as §1, with “at risk” for “over the age”, “developing colorectal cancer” for “65”, “for increased expression level of APEX1. Or a 70-kilogram human subject is” for “as having, or”, “be at risk” for “have, or suspected”, “developing colorectal cancer and/or have” for “having an”
# (§2) A 70-kilogram human subject at risk of developing an autoimmune disease (e.g., rheumatoid arthritis) is identified for increased expression level of APEX1. Or a 70-kilogram human subject is known to be at risk of developing an autoimmune disease and/or have increased expression level of APEX1. The human subject is administered a dose of 2000 mg of Tempol (or another nitroxide antioxidant) per day for 180 days. This may be administered in a single dose, or may be administered as a number of smaller doses over a 24-hour period: for example, four 500-mg doses at […]. Following treatment, the serum level of APEX1, is decreased.
# as §1, with “The” for “A 70-kilogram human subject over the age of 65 is identified as having, or known to have, or suspected of having an increased expression level of APEX1. The”
# as §2, with “a neurodegenerative” for “an autoimmune”, “Parkinson's Disease)” for “rheumatoid arthritis)”, “decreased. […]” for “decreased.”
# APEX1 [2] = assay: Effects of Tempol on gene expression in cardiac tissue of mice, chip-based microarray; type: in vivo
# Procedure: To assess the effects of Tempol on gene expression, Tempol was administered to experimental mice at a dose of 5 mg/g of food from 14 months to 31 months after birth. Mice receiving the same food without the addition of Tempol were used as a negative control. At the age of 31 months, the experimental animals were sacrificed and the hearts were surgically removed. The expression of a broad spectrum of genes in the cardiac tissue was assessed using chip-based microarray technology. Such chips are well known in the art and are widely used to assess gene expression.
smiles,measurement,setting,value
"CC1(C)CC(O)CC(C)(C)N1[O] [Tempol, 4-hydroxy-2,2,6,6-tetramethylpiperidine-1-oxyl]",serum level of APEX1,APEX1 [1]; Example 2: 70-kilogram human subject over the age of 65 with increased expression level of APEX1,decreased
same,serum level of APEX1,APEX1 [1]; Example 3: 70-kilogram human subject with increased expression level of APEX1,decreased
same,serum level of APEX1,APEX1 [1]; Example 4: human subject over the age of 65 having a cardiovascular disease,decreased
same,serum level of APEX1,APEX1 [1]; Example 5: human subject at risk of developing colorectal cancer,decreased
same,serum level of APEX1,"APEX1 [1]; Example 6: human subject at risk of developing an autoimmune disease (e.g., rheumatoid arthritis)",decreased
same,serum level of APEX1,APEX1 [1]; Example 7: human subject at risk of developing a condition due to aging,decreased
same,serum level of APEX1,"APEX1 [1]; Example 8: human subject at risk of developing a neurodegenerative disease (e.g., Parkinson's Disease)",decreased
same,serum level of APEX1,"APEX1 [1]; Example 9: human subject having an infection (e.g., bacterial, fungal, or viral)",decreased
same,Fold change (APEX1 expression),"APEX1 [2]; Tempol 5 mg/g of food from 14 months to 31 months after birth, cardiac tissue at 31 months, vs mice on same food without Tempol",−1.23
same,expression of APEX1 in the cardiac tissue,"APEX1 [2]; Tempol 5 mg/g of food from 14 to 31 months after birth, microarray",statistically significant decrease in expression
